Measured values: US7902373B2 (Pfizer Inc, priority 2006, dated 2011)

Target: human recombinant H-PGDS (Homo sapiens, UniProt O60760)
Test: Fluorescence intensity h-PGDS TBA enzyme assay
Type: biochemical
Conditions: Examples up to 622 (and 3a, 3b)

Chain of human recombinant H-PGDS (O60760 whole entry): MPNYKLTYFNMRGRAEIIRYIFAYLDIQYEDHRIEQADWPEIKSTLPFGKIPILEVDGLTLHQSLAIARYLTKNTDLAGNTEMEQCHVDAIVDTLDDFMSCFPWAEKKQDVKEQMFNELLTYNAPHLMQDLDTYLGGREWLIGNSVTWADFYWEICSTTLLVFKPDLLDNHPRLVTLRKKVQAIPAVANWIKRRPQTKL

Structure (SMILES)	IC50
CC(C)(C)OC(=O)N1C[C@H](O)[C@H](NC(=O)c2ccc(-c3cccc(F)c3)nc2)C1 (relative stereo) [Example 609, cis-tert-Butyl 3-({[6-(3-fluorophenyl)pyridin-3-yl]carbonyl}amino)-4-hydroxypyrrolidine-1-carboxylate]	5.43 nM
CC(C)(C)OC(=O)N1C[C@@H](O)[C@H](NC(=O)c2ccc(-c3cccc(F)c3)nc2)C1 (relative stereo) [Example 610, Trans-tert-Butyl 3-({[6-(3-fluorophenyl)pyridin-3-yl]carbonyl}amino)-4-hydroxypyrrolidine-1-carboxylate]	6.92 nM
CC(C)(C)C(=O)N1C[C@@H](O)[C@H](NC(=O)c2ccc(-c3cccc(F)c3)nc2)C1 (relative stereo) [Example 612, Trans-N-[1-(2,2-dimethylpropanoyl)-4-hydroxypyrrolidin-3-yl]-6-(3-fluorophenyl)nicotinamide]	12 nM
O=C(N[C@H]1CN(c2cnc3ccccc3n2)C[C@@H]1O)c1ccc(-c2cccc(F)c2)nc1 (relative stereo) [Example 613, trans-6-(3-Fluorophenyl)-N-[4-hydroxy-1-quinoxalin-2-ylpyrrolidin-3-yl]nicotinamide]	3.57 nM
CCc1cn2nc(N3C[C@H](NC(=O)c4ccc(-c5cccc(F)c5)nc4)[C@@H](O)C3)ccc2n1 (relative stereo) [Example 614, Trans-N-[1-(2-ethylimidazo[12-b]pyridazin-6-yl)-4-hydroxypyrrolidin-3-yl]-6-(3-fluorophenyl)nicotinamide]	52.5 nM
Cc1cc(C)c(C#N)c(N2C[C@@H](O)[C@H](NC(=O)c3ccc(-c4cccc(F)c4)nc3)C2)n1 (relative stereo) [Example 615, Trans-N-[1-(3-cyano-4,6-dimethylpyridin-2-yl)-4-hydroxypyrrolidin-3-yl]-6-(3-fluorophenyl)nicotinamide]	5.1 nM
O=C(N[C@@H]1CN(c2nc3ccccc3o2)C[C@H]1O)c1ccc(-c2cccc(F)c2)nc1 (relative stereo) [Example 616, Trans-N-[1-(1,3-benzoxazol-2-yl)-4-hydroxypyrrolidin-3-yl]-6-(3-fluorophenyl)nicotinamide]	5.12 nM
Cc1ccc(C#N)c(N2C[C@H](NC(=O)c3ccc(-c4cccc(F)c4)nc3)[C@@H](O)C2)n1 (relative stereo) [Example 617]	4.1 nM
O=C(N[C@@H]1CN(c2ncc3ccc(F)cc3n2)C[C@H]1O)c1ccc(-c2cccc(F)c2)nc1 (relative stereo) [Example 618, Trans-6-(3-fluorophenyl)-N-[1-(7-fluoroquinazolin-2-yl)-4-hydroxypyrrolidin-3-yl]nicotinamide]	7.33 nM
CN1CCC(NC(=O)c2ccc(-c3ccccc3)nc2)CC1 [Example 3a, N-(1-Methylpiperidin-4-yl)-6-phenylnicotinamide]	6.86 nM
O=C(NC1CCN(CC(F)(F)F)CC1)c1ccc(-c2ccc(F)cc2)nc1 [Example 9, 6-(4-Fluorophenyl)-N-(1-(2,2,2-trifluoroethyl)piperidin-4-yl)nicotinamide]	23.6 nM
CCCC(=O)N1CCC(NC(=O)c2ccc(-c3ccc(F)cc3)nc2)CC1 [Example 10, N-(1-Butyrylpiperidin-4-yl)-6-(4-fluorophenyl)nicotinamide]	78.4 nM
O=C(NC1CCN(Cc2ccccn2)CC1)c1ccc(-c2ccc(F)cc2)nc1 [Example 11, 6-(4-Fluorophenyl)-N-[1-(pyridin-2-ylmethyl)piperidin-4-yl]nicotinamide]	39.4 nM
CN1CCC(NC(=O)c2ccc(-c3ccc(F)cc3)nc2)CC1 [Example 12, 6-(4-Fluorophenyl)-N-(1-methylpiperidin-4-yl)nicotinamide]	694 nM
O=C(NC1CCN(Cc2ccccc2)CC1)c1ccc(-c2ccc(F)cc2)nc1 [Example 13, N-(1-Benzylpiperidin-4-yl)-6-(4-fluorophenyl)nicotinamide]	58 nM
COc1cccc(-c2ccc(C(=O)NC3CCN(CC(F)(F)F)CC3)cn2)c1 [Example 14, 6-(3-Methoxyphenyl)-N-(1-(2,2,2-trifluoroethyl)piperidin-4-yl)nicotinamide]	4.29 nM
COc1cccc(-c2ccc(C(=O)NC3CCN(C)CC3)cn2)c1 [Example 16, 6-(3-Methoxyphenyl)-N-(1-methylpiperidin-4-yl)nicotinamide]	146 nM
COc1cccc(-c2ccc(C(=O)NC3CCN(Cc4ccccc4)CC3)cn2)c1 [Example 17, N-(1-Benzylpiperidin-4-yl)-6-(3-methoxyphenyl)nicotinamide]	11.7 nM
CCOC(=O)N1CCC(NC(=O)c2ccc(-c3cccc(OC)c3)nc2)CC1 [Example 18, Ethyl 4-({[6-(3-methoxyphenyl)pyridin-3-yl]carbonyl}amino)piperidine-1-carboxylate]	3.94 nM
CCCC(=O)N1CCC(NC(=O)c2ccc(-c3cccc(OC)c3)nc2)CC1 [Example 19, N-(1-Butyrylpiperidin-4-yl)-6-(3-methoxyphenyl)nicotinamide]	36.2 nM
COc1cccc(-c2ccc(C(=O)NC3CCN(C(C)C)CC3)cn2)c1 [Example 20, N-(1-Isopropylpiperidin-4-yl)-6-(3-methoxyphenyl)nicotinamide]	1000 nM
Cc1cccc(-c2ccc(C(=O)NC3CCN(C)CC3)cn2)c1 [Example 22, 6-(3-Methylphenyl)-N-(1-methylpiperidin-4-yl)nicotinamide]	73.3 nM
Cc1cccc(-c2ccc(C(=O)NC3CCN(C(C)C)CC3)cn2)c1 [Example 25, N-(1-Isopropylpiperidin-4-yl)-6-(3-methylphenyl)nicotinamide]	7.66 nM
CN1CCC(NC(=O)c2ccc(-c3cccc(F)c3)nc2)CC1 [Example 27, 6-(3-Fluorophenyl)-N-(1-methylpiperidin-4-yl)nicotinamide]	19.1 nM
CC(C)N1CCC(NC(=O)c2ccc(-c3cccc(F)c3)nc2)CC1 [Example 30, 6-(3-Fluorophenyl)-N-(1-isopropylpiperidin-4-yl)nicotinamide]	3.79 nM
CCCC(=O)N1CCC(NC(=O)c2ccc(-c3cccc(F)c3)nc2)CC1 [Example 31, N-(1-Butyrylpiperidin-4-yl)-6-(3-fluorophenyl)nicotinamide]	19.9 nM

These reach a lower IC50. Values come first.

IC50	Structure (SMILES)
1.19 nM	O=C(N[C@@H]1CN(c2nnnn2-c2ccccc2)C[C@H]1O)c1ccc(-c2cccc(F)c2)nc1 (relative stereo) [Example 619, Trans-6-(3-fluorophenyl)-N-[4-hydroxy-1-(1-phenyl-1H-tetrazol-5-yl)pyrrolidin-3-yl]nicotinamide]
0.69 nM	CCC(CO)n1cnc2c(N3CCC(NC(=O)c4ccc(-c5cccc(F)c5)nc4)CC3)ncnc21 (single isomer, unassigned) [Example 581, 6-(3-Fluorophenyl)-N-(1-{9-[1-(hydroxymethyl)propyl]-9H-purin-6-yl}piperidin-4-yl)nicotinamide]
1.22 nM	CCC(CO)n1cnc2c(N3CCC(NC(=O)c4ccc(-c5cccc(F)c5)nc4)CC3)ncnc21 (single isomer, unassigned) [Example 582, 6-(3-Fluorophenyl)-N-(1-{9-[1-(hydroxymethyl)propyl]-9H-purin-6-yl}piperidin-4-yl)nicotinamide]
0.204 nM	O=C(NC1CCN(CC(F)(F)F)CC1)c1ccc(-c2ccccc2)nc1 [Example 1, 6-Phenyl-N-(1-(2,2,2-trifluoroethyl)piperidin-4-yl)nicotinamide]
0.343 nM	O=C(NC1CCN(c2ccc(C(=O)N3CCOCC3)cn2)CC1)c1ccc(-c2cccc(F)c2)nc1 [Example 3, 6-(3-Fluorophenyl)-N-{1-[5-(morpholin-4-ylcarbonyl)pyridin-2-yl]piperidin-4-yl}nicotinamide]
0.403 nM	CCOC(=O)N1CCC(NC(=O)c2ccc(-c3ccccc3)nc2)CC1 [Example 3b, Ethyl 4-{[(6-phenylpyridin-3-yl)carbonyl]amino}piperidine-1-carboxylate]
2.58 nM	CC(C)N1CCC(NC(=O)c2ccc(-c3ccccc3)nc2)CC1 [Example 4, N-(1-Isopropylpiperidin-4-yl)-6-phenylnicotinamide]
0.665 nM	O=C(NC1CCN(Cc2ccccn2)CC1)c1ccc(-c2ccccc2)nc1 [Example 5, 6-Phenyl-N-[1-(pyridin-2-ylmethyl)piperidin-4-yl]nicotinamide]
0.377 nM	O=C(NC1CCN(CC2CCOCC2)CC1)c1ccc(-c2ccccc2)nc1 [Example 6, 6-Phenyl-N-[1-(tetrahydro-2H-pyran-4-ylmethyl)piperidin-4-yl]nicotinamide]
0.351 nM	CC(C)(C)C(=O)N1CCC(NC(=O)c2ccc(-c3ccccc3)nc2)CC1 [Example 7, N-[1-(2,2-Dimethylpropanoyl)piperidin-4-yl]-6-phenylnicotinamide]
1.57 nM	O=C(NC1CCN(Cc2ccccc2)CC1)c1ccc(-c2ccccc2)nc1 [Example 8, N-(1-Benzylpiperidin-4-yl)-6-phenylnicotinamide]
2.91 nM	COc1cccc(-c2ccc(C(=O)NC3CCN(Cc4ccccn4)CC3)cn2)c1 [Example 15, 6-(3-Methoxyphenyl)-N-[1-(pyridin-2-ylmethyl)piperidin-4-yl]nicotinamide]
0.898 nM	Cc1cccc(-c2ccc(C(=O)NC3CCN(CC(F)(F)F)CC3)cn2)c1 [Example 21, 6-m-Tolyl-N-(1-(2,2,2-trifluoroethyl)piperidin-4-yl)nicotinamide]
1.72 nM	Cc1cccc(-c2ccc(C(=O)NC3CCN(Cc4ccccc4)CC3)cn2)c1 [Example 23, N-(1-Benzylpiperidin-4-yl)-6-(3-methylphenyl)nicotinamide]
2.64 nM	CCCC(=O)N1CCC(NC(=O)c2ccc(-c3cccc(C)c3)nc2)CC1 [Example 24, N-(1-Butyrylpiperidin-4-yl)-6-(3-methylphenyl)nicotinamide]
1.72 nM	O=C(NC1CCN(Cc2ccccn2)CC1)c1ccc(-c2cccc(F)c2)nc1 [Example 28, 6-(3-Fluorophenyl)-N-[1-(pyridin-2-ylmethyl)piperidin-4-yl]nicotinamide]
0.946 nM	O=C(NC1CCN(Cc2ccccc2)CC1)c1ccc(-c2cccc(F)c2)nc1 [Example 29, N-(1-Benzylpiperidin-4-yl)-6-(3-fluorophenyl)nicotinamide]
